Measured values: patent publication US10618914B2 (UNIVERSITY OF PITTSBURGH—OF THE COMMONWEALTH SYSTEM OF …, priority 2015, dated 2020)
Where “and” joins values, the source holds several entries; their conditions need not be identical. Identical values can stand only once. Like-named read-outs stand apart in the source and are kept apart here.

Experiments:
Cal33 cells = assay: Cal33 growth inhibition; type: cell-based; conditions: for GI50: Table 5, * average of 2 experiments
STAT3 = assay: HCS STAT3 assay; type: cell-based
[1] = Table 2, read-out: Cal33 (IC50)
[2] = Table 2, read-out: STAT3 (IC50)
[3] = Homo sapiens, CAL-33, Table 1, read-out: Growth Inhibition Cal33 (mean IC50)
[4] = Homo sapiens, CAL-33, Table 2, read-out: Cal33 (IC50)
[5] = Table 1, read-out: STAT3 (mean IC50)

SMILES	IC50 (STAT3; [2])	IC50 (Cal33 cells; [1])	further results
COc1ccc(C2=Nn3c(nnc3-c3n[nH]c(-c4ccc(Cl)cc4)c3C)SC2C)cc1 (stereo not shown) [compound 10547]	7.3 µM	1.3 µM	
COc1ccc(C2=Nn3c(nnc3-c3cc(-c4ccccc4)n[nH]3)SC2Cc2ccccc2)cc1 (stereo not shown) [compound 10321]	5.8 µM		
CC1Sc2nnc(-c3nn(C)c4c3CCC4)n2N=C1c1ccc(Cl)c(Cl)c1 (stereo not shown) [compound 10469]	7.8 µM	3.1 µM	
Clc1ccc(C2=Nn3c(nnc3-c3cc(-c4ccccc4)n[nH]3)SC2Cc2ccccc2)cc1Cl (stereo not shown) [compound 10309]	22.6 µM		
c1ccc(C2=Nn3c(nnc3-c3[nH]nc4c3CCC4)SC2c2ccccc2)cc1 (racemic) [compound 10298]	26.5 µM	1.1 µM	
CC1Sc2nnc(-c3cc(-c4ccccc4)n[nH]3)n2N=C1c1ccccc1 (stereo not shown) [compound 10131]	3 µM	26.3 µM	
COc1ccc(C2=Nn3c(nnc3-c3nn(C(C)=O)c4c3CCC4)SC2C)cc1 (stereo not shown) [compound 10421]	37.1 µM	0.26 µM	
CC1Sc2nnc(-c3[nH]nc4c3CCC4)n2N=C1c1ccc(Cl)cc1 (stereo not shown) [UPCDC10281]	7.21 µM		IC50 (Cal33 cells; [3]): 0.44 µM; IC50 (Cal33 cells; [4]): 0.44 µM; IC50 (STAT3; [5]): 7.21 µM
CC1Sc2nnc(-c3[nH]nc4c3CCC4)n2N=C1c1ccc(F)c(F)c1 (stereo not shown) [compound 10510]	47.1 µM	50 µM	
CC1Sc2nnc(-c3nn(Cc4ccccc4)c4c3CCC4)n2N=C1c1ccc(Cl)c(Cl)c1 (stereo not shown) [compound 10491]	5.9 µM	17.4 µM	
COc1cccc(C2=Nn3c(nnc3-c3[nH]nc4c3CCC4)SC2C)c1 (stereo not shown) [compound 10471]	40.1 µM	3.9 µM	
CC1(C)Sc2nnc(-c3cc(-c4ccc(Cl)cc4)n[nH]3)n2N=C1c1ccccc1 [compound 10268]	38.2 µM	50 µM	
CC1Sc2nnc(-c3cc(-c4ccccc4)n[nH]3)n2N=C1c1ccc(N2CCOCC2)cc1 (stereo not shown) [compound 10522]	39.3 µM	9.6 µM	
CC1Sc2nnc(-c3cc(-c4ccccc4)n[nH]3)n2N=C1c1ccccc1 (stereo not shown) [compound 10260]	4.8 µM	42.7 µM	
COc1ccc(C2=Nn3c(nnc3-c3cc(-c4ccccc4)n(C)n3)SC2C)cc1 (stereo not shown) [compound 10542]	6.5 µM	15.1 µM	
COc1ccc(C2=Nn3c(nnc3-c3[nH]nc4c3CN(Cc3ccccc3)C4)SC2C)cc1 (stereo not shown) [compound 10512]	27 µM	4.6 µM	

SMILES	IC50 (STAT3; [2])	IC50 (Cal33 cells; [1])	further results
O=C(CC1Sc2nnc(-c3cc(-c4ccc(Cl)cc4)n[nH]3)n2N=C1c1ccccc1)N1CCCC1 (stereo not shown) [compound 10411]	11.1 µM	21.6 µM	
COc1ccc(C2=Nn3c(nnc3-c3nn(C(=O)OC(C)(C)C)c4c3CCC4)SC2C)cc1 (stereo not shown) [compound 10422]	34.7 µM	0.38 µM	
COc1ccc(C2=Nn3c(nnc3-c3[nH]nc4c3CCC4)SC2C(C)C)cc1 (stereo not shown) [UPCDC10318]			IC50 (Cal33 cells; [3]): 0.4 µM; IC50 (Cal33 cells; [4]): 0.4 µM
CC1Sc2nnc(-c3cc(-c4ccccc4)n[nH]3)n2N=C1c1ccc(OC(F)(F)F)cc1 (stereo not shown) [compound 10474]	24.2 µM	50 µM	
CC1Sc2nnc(-c3cc(-c4ccc(Cl)cc4)n[nH]3)n2N=C1c1ccc(Cl)c(Cl)c1 (stereo not shown) [compound 10537]	16 µM	7.6 µM	
COc1ccc(C2=Nn3c(nnc3-c3cc(-c4ccccc4)n[nH]3)SC2CCN)cc1 (stereo not shown) [compound 10371]		24.1 µM	
CCOC(=O)CC1Sc2nnc(-c3cc(-c4ccccc4)n[nH]3)n2N=C1c1ccc(OC)cc1 (stereo not shown) [compound 10448]	15.5 µM	13.6 µM	
c1ccc2c(C3=Nn4c(nnc4-c4[nH]nc5c4CCC5)SC3)c[nH]c2c1 [UPCDC10115]			IC50 (Cal33 cells; [3]): 0.21 µM; IC50 (STAT3; [5]): 38 µM
COc1ccc(C2=Nn3c(nnc3-c3[nH]nc4c3CCC4)SC2)cc1			IC50 (Cal33 cells; [3]): 0.15 µM
COc1ccc(C2=Nn3c(nnc3-c3cc(-c4ccccc4)n[nH]3)SC2CC(C)C)cc1 (stereo not shown) [compound 10307]		11.5 µM	
COc1ccc(C2=Nn3c(nnc3-c3cc(-c4ccccc4)n[nH]3)SC2CCN)cc1 (stereo not shown) [Cmpd 30]			GI50 (Cal33 cells): 2.5 µM
Clc1ccc(C2=Nn3c(nnc3-c3[nH]nc4c3CCC4)SC2)cc1 [UPCDC87346005]			IC50 (Cal33 cells; [3]): 0.77 µM
COc1ccc(C2=Nn3c(nnc3-c3cc(-c4ccc(Cl)cc4)n[nH]3)SC2C)cc1 (stereo not shown) [Cmpd 24]			GI50 (Cal33 cells): 2.2 ± 0.3 µM
COCCC1Sc2nnc(-c3cc(-c4ccccc4)n[nH]3)n2N=C1c1ccc(OC)cc1 (stereo not shown) [Cmpd 31]			GI50 (Cal33 cells): 0.04 µM
COc1ccc(C2=Nn3c(nnc3-c3cc(-c4ccc(Cl)cc4)n[nH]3)SC2C)cc1 (racemic) [compound 10205]		2.1 µM and 2 µM	

Second part, led by results:

IC50 (STAT3; [2])	SMILES	IC50 (Cal33 cells; [1])	further results
18.2 µM	CC1Sc2nnc(-c3[nH]nc4c3CCC4)n2N=C1c1ccccc1 (racemic) [compound 10173]	41.8 µM	
22.4 µM	CC1Sc2nnc(-c3[nH]nc4c3CCCC4)n2N=C1c1ccccc1 (racemic) [compound 10175]	40.2 µM	
5.7 µM	CC1Sc2nnc(-c3cc(-c4ccc(Cl)cc4)n[nH]3)n2N=C1c1ccccc1 (racemic) [compound 10174]	35.5 µM	
49.2 µM	COc1ccc(C2=Nn3c(nnc3-c3[nH]nc4c3CCC4)SC2CCO)cc1 (stereo not shown) [compound 10403]	0.93 µM	
27.3 µM	CC(C)C1Sc2nnc(-c3cc(-c4ccccc4)n(C)n3)n2N=C1c1ccc(Cl)c(Cl)c1 (stereo not shown) [compound 10556]	48.6 µM	
4.4 µM	CC(C)C1Sc2nnc(-c3[nH]nc4c3CCC4)n2N=C1c1ccc(Cl)c(Cl)c1 (racemic) [compound 10299]	8.2 µM	IC50 (STAT3; FIG. 3, read-out: STAT3 potency (IC50)): < 10 µM
7.6 µM	COc1ccc(C2=Nn3c(nnc3-c3nn(Cc4ccccc4)c4c3CCC4)SC2C)cc1 (stereo not shown) [compound 10439]	1.7 µM	
46.1 µM	COc1ccc(C2=Nn3c(nnc3-c3nn(C)c4c3CCC4)SC2C)cc1 (stereo not shown) [compound 10420]	0.38 µM	
8.5 µM and 11 µM	CC1Sc2nnc(-c3[nH]nc4c3CCC4)n2N=C1c1ccc(Cl)c(Cl)c1 (stereo not shown) [compound 10263, 6-(3,4-Dichlorophenyl)-7-methyl-3-(2,4,5,6-tetrahydrocyclopenta[c]pyrazol-3-yl)-7H-[1,2,4]triazolo[3,4-b][1,3,4]thiadiazine]		
17.9 µM	COC(=O)CC1Sc2nnc(-c3cc(-c4ccccc4)n[nH]3)n2N=C1c1ccccc1 (stereo not shown) [compound 10423]	37.9 µM	
3.7 µM	CCN(CC)c1ccc(C2=Nn3c(nnc3-c3cc(-c4ccccc4)n(C)n3)SC2C)cc1 (stereo not shown) [compound 10555]	10.5 µM	
18.6 µM	CC1Sc2nnc(-c3[nH]nc4c3CCC4)n2N=C1c1ccc(Br)cc1 (stereo not shown) [compound 10476]	0.79 µM	
32.2 µM	CC1Sc2nnc(-c3cc(-c4cccc(Cl)c4)n[nH]3)n2N=C1c1ccc(Cl)c(Cl)c1 (stereo not shown) [compound 10538]	13.7 µM	
31.2 µM	COc1ccc(C2=Nn3c(nnc3-c3[nH]nc4c3CCC4)SC2CCN)cc1 (stereo not shown) [compound 10383]	2.5 µM	
33.9 µM	COc1ccc(C2=Nn3c(nnc3-c3[nH]nc4c3CSC4)SC2C)cc1 (stereo not shown) [compound 10435]	0.63 µM	
25.1 µM	COc1ccc(C2=Nn3c(nnc3-c3[nH]nc4c3CCC4)SC2C)cc1OC (stereo not shown) [compound 10494]	5.7 µM	
8.7 µM	COc1ccc(C2=Nn3c(nnc3-c3cc(-c4cccc(Cl)c4)n[nH]3)SC2C)cc1 (stereo not shown) [compound 10539]	12.7 µM	
